Reference: patent US6566355B1 (Hoffmann-La Roche Inc., priority 1991, dated 2003)
Counter-ions that a name gives are not always drawn. Like-named read-outs stand apart in the source and are kept apart here.

How the values were obtained:
β-lactamase = biological target: T1, β-lactamase (Citrobacter freundii, UniProt P05193); assay: biochemical
T1 construct: Various β-lactamases can be isolated from penicillin- or cephalosporin-resistant bacterial strains such as; endogenous in cells; host or cells: Citrobacter freundii 1203 (enzyme purified from the crude cell extract, after ampicillin induction when necessary)
How it was run: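 β-lactamase from C. freundii 1203 crude extract (French press, 20 mM Tris-HCl pH 7.0) assayed with 0.1 mM nitrocefin in 50 mM phosphate pH 7.0 at 37° C, enzyme set to ΔA/min about 0.1, read at 482 nm. IC50 is inhibitor concentration giving 50% inhibition of nitrocefin cleavage, determined graphically.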

Citrobacter freundii = assay: MIC in vitro of a 1:4 combination of ceftriaxone with a compound of formula I (test D); type: cell-based; settings: 1:4 combination of ceftriaxone with the compound
Method: D. Determination of the β-lactamase-inhibiting activity by combination of a compound of general formula I with ceftriaxone
The minimum inhibitory concentration in vitro (MIC in μg/ml) of a 1:4 combination of ceftriaxone with a compound of formula I against Citrobacter freundii is measured and compiled in Table 2 hereinafter.

[1] = IC 50 nM, isolated β-lactamase of Citrobacter freundii, substrate nitrocefin 0.1 mM, 15 minutes pre-incubation with inhibitor, 37° C., pH 7.0

T1 sequence (P05193 21-381): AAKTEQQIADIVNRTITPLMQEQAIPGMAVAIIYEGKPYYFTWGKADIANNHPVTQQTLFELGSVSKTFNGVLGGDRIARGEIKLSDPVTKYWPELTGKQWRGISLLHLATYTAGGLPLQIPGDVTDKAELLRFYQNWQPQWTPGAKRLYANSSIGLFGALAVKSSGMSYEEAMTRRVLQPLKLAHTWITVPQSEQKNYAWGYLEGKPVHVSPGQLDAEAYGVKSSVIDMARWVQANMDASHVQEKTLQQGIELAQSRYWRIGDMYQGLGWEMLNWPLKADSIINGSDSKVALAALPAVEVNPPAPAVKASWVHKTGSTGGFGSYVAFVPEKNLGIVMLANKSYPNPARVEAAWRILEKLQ

Which IC50 (β-lactamase; [1]) does the source give for `Nc1nc(CNC(=O)N2CC[C@@H]3[C@H]2C(=O)N3S(=O)(=O)[O-])cs1.[Na+]` [17(ae), (1S,5R)-2-[2-Amino-thiazol-4-ylmethylcarbamoyl]-7-oxo-2,6-diazabicyclo[3.2.0]heptane-6-sulfonic acid sodium salt] here?
The IC50 was 200 nM.

What about the “MIC” value (Citrobacter freundii) of the same molecule?
The value was 1 mg/L.

For `O=C(NCc1nc(C2CC2)no1)N1CC[C@@H]2[C@H]1C(=O)N2S(=O)(=O)[O-].[Na+]` [17(af), (1S,5R)-2-(3-Cyclopropyl-1,2,4-oxadiazol-5-ylmethylcarbamoyl)-7-oxo-2,6-diazabicyclo[3.2.0]heptane-6-sulfonic acid sodium salt], which IC50 (β-lactamase; [1]) is on record?
Its IC50 is 107 nM.

What about the “MIC” value (Citrobacter freundii) of the same molecule?
The value was 1 mg/L.

How did the IC50 (β-lactamase; [1]) turn out when `O=C1C[C@H](NC(=O)N2CC[C@@H]3[C@H]2C(=O)N3S(=O)(=O)[O-])C(=O)N1.[Na+]` [17(ag), (1S,5R)-7-Oxo-2-[(S)-2,5-dioxo-pyrrolidin-3-ylcarbamoyl]-2,6-diazabicyclo[3.2.0]heptane-6-sulfonic acid sodium salt] was run?
The IC50 was 337 nM.

And the “MIC” value (Citrobacter freundii)?
Its value is 1 mg/L.

For `O=C(NCCc1ccccn1)N1CC[C@@H]2[C@H]1C(=O)N2S(=O)(=O)[O-].[Na+]` [17(b), (1S,5R)-7-Oxo-2-[2-(pyridin-2-yl)ethylcarbamoyl]-2,6-diazabicyclo[3.2.0]heptane-6-sulphonic acid sodium salt], which IC50 (β-lactamase; [1]) is on record?
Its IC50 is 285 nM.

And the “MIC” value (Citrobacter freundii)?
The value was 2 mg/L.

What does the source list for `O=C(NCc1ccccn1)N1CC[C@@H]2[C@H]1C(=O)N2S(=O)(=O)[O-].[Na+]` [17(c), (1S,5R)-7-Oxo-2-[(2-pyridylmethyl)carbamoyl]-2,6-diazabicyclo[3.2.0]heptane-6-sulphonic acid sodium salt]?
IC50 (β-lactamase; [1]): 400 nM; MIC (Citrobacter freundii): 2 mg/L

How did the IC50 (β-lactamase; [1]) turn out when `O=C(NNc1ccccc1)N1CC[C@@H]2[C@H]1C(=O)N2S(=O)(=O)O` [17(d), (1S,5R)-7-Oxo-2-(2-phenyl-carbazoyl)-2,6-diazabicyclo[3.2.0]heptane-6-sulphonic acid sodium salt] was run?
The IC50 was 197 nM.

What about the “MIC” value (Citrobacter freundii) of the same molecule?
Its value is 2 mg/L.

For `O=C(NCc1ccc(O)c(O)c1)N1CC[C@@H]2[C@H]1C(=O)N2S(=O)(=O)[O-].[Na+]` [17(e), (1S,5R)-2-(3,4-Dihydroxybenzylcarbamoyl)-7-oxo-2,6-diazabicyclo[3.2.0]heptane-6-sulphonic acid sodium salt], which IC50 (β-lactamase; [1]) is on record?
Its IC50 is 250 nM.

And the “MIC” value (Citrobacter freundii)?
The value was 2 mg/L.

With `Cc1nnc(O)c(CNC(=O)N2CC[C@@H]3[C@H]2C(=O)N3S(=O)(=O)O)c1C` [17(f), (1S,5R)-2-(3-Hydroxy-5,6-dimethyl-pyridazin-4-yl-methylcarbamoyl)-7-oxo-2,6-diazabicyclo[3.2.0]heptane-6-sulphonic acid sodium salt] as the molecule, how does the IC50 (β-lactamase; [1]) read?
Its IC50 is 193 nM.

What about the “MIC” value (Citrobacter freundii) of the same molecule?
The value was 2 mg/L.

Which results are given for `NS(=O)(=O)c1ccc(CNC(=O)N2CC[C@@H]3[C@H]2C(=O)N3S(=O)(=O)[O-])cc1.[Na+]` [17(g), (1S,5R)-7-Oxo-2-(4-sulphamoyl-benzylcarbamoyl)-2,6-diazabicyclo[3.2.0]heptane-6-sulphonic acid sodium salt]?
IC50 (β-lactamase; [1]): 427 nM; MIC (Citrobacter freundii): 2 mg/L

What does the source list for `O=C(NCCc1ccc(O)c(O)c1)N1CC[C@@H]2[C@H]1C(=O)N2S(=O)(=O)[O-].[Na+]` [17(k), (1S,5R)-2-[2-(3,4-Dihydroxyphenyl)ethylcarbamoyl]-7-oxo-2,6-diazabicyclo[3.2.0]heptane-6-sulphonic acid sodium salt]?
IC50 (β-lactamase; [1]): 109 nM; MIC (Citrobacter freundii): 16 mg/L

`COc1ccc(NC(=O)N2CC[C@@H]3[C@H]2C(=O)N3S(=O)(=O)[O-])cc1.[Na+]` [17(l), (1S,5R)-2-(4-Methoxyphenylcarbamoyl)-7-oxo-2,6-diazabicyclo[3.2.0]heptane-6-sulphonic acid sodium salt] was tested. Which IC50 (β-lactamase; [1]) did it give?
Its IC50 is 437 nM.

What about the “MIC” value (Citrobacter freundii) of the same molecule?
Its value is 4 mg/L.

Which results are given for `O=C(NCC1CCCCC1)N1CC[C@@H]2[C@H]1C(=O)N2S(=O)(=O)[O-].[Na+]` [17(m), (1S,5R)-2-Cyclohexylmethylcarbamoyl-7-oxo-2,6-diazabicyclo[3.2.0]heptane-6-sulphonic acid sodium salt]?
IC50 (β-lactamase; [1]): 359 nM; MIC (Citrobacter freundii): 16 mg/L

`O=C(OCc1cccs1)N1CC[C@@H]2[C@H]1C(=O)N2S(=O)(=O)[O-].[Na+]` [17(n), (1S,5R)-7-Oxo-2-(thien-2-yl-methoxycarbonyl)-2,6-diazabicyclo[3.2.0]heptane-6-sulphonic acid sodium salt] was tested. Which IC50 (β-lactamase; [1]) did it give?
Its IC50 is 272 nM.

And the “MIC” value (Citrobacter freundii)?
Its value is 16 mg/L.

With `O=C1SCC[C@H]1NC(=O)N1CC[C@@H]2[C@H]1C(=O)N2S(=O)(=O)O` [17(u), (1S,5R)-7-Oxo-2-(R)-(2-oxo-3-tetrahydrothienyl-carbamoyl)-2,6-diazabicyclo[3.2.0]heptane-6-sulphonic acid sodium salt] as the molecule, how does the IC50 (β-lactamase) read?
The IC50 was 62 nM.

What about the “MIC” value (Citrobacter freundii) of the same molecule?
The value was 2 mg/L.

With `Cn1nnnc1CNC(=O)N1CC[C@@H]2[C@H]1C(=O)N2S(=O)(=O)[O-].[Na+]` [17(z), (1S,5R) -2-[1-Methyl-1H-tetrazol-5-ylmethylcarbamoyl]-7-oxo-2,6-diazabicyclo[3.2.0]heptane-6-sulfonic acid sodium salt] as the molecule, how does the IC50 (β-lactamase; [1]) read?
Its IC50 is 98 nM.

What about the “MIC” value (Citrobacter freundii) of the same molecule?
The value was 1 mg/L.

`Cc1cc(=O)oc2cc(OCC(=O)N3CC[C@@H]4[C@H]3C(=O)N4S(=O)(=O)[O-])ccc12.[Na+]` [23(a), (1S,5R)-2-(4-Methyl-2-oxo-2H-benzopyran-7-yloxyacetyl)-7-oxo-2,6-diazabicyclo[3.2.0]heptane-6-sulfonic acid sodium salt] was tested. Which IC50 (β-lactamase; [1]) did it give?
Its IC50 is 97 nM.

What about the “MIC” value (Citrobacter freundii) of the same molecule?
Its value is 16 mg/L.

`Cn1cnnc1SCC(=O)N1CC[C@@H]2[C@H]1C(=O)N2S(=O)(=O)[O-].[Na+]` [23(b), (1S,5R)-2-(4-Methyl-4H-1,2,4-triazol-3-ylsulfanylacetyl)-7-oxo-2,6-diazabicyclo[3.2.0]heptane-6-sulfonic acid sodium salt] was tested. Which IC50 (β-lactamase; [1]) did it give?
Its IC50 is 50 nM.

What about the “MIC” value (Citrobacter freundii) of the same molecule?
The value was 0.5 mg/L.

Which IC50 (β-lactamase; [1]) does the source give for `Cn1cccc1/C=C/C(=O)N1CC[C@@H]2[C@H]1C(=O)N2S(=O)(=O)[O-].[Na+]` [23(c), (1S,5R)-2-[(E)-3-(1-Methyl-pyrrol-2-yl)acryloyl]-7-oxo-2,6-diazabicyclo[3.2.0]heptane-6-sulfonic acid sodium salt] here?
The IC50 was 420 nM.

What about the “MIC” value (Citrobacter freundii) of the same molecule?
Its value is 8 mg/L.

For `Cn1ccnc1SCC(=O)N1CC[C@@H]2[C@H]1C(=O)N2S(=O)(=O)[O-].[Na+]` [23(d), (1S,5R)-2-(1-Methyl-imidazol-2-ylsulfanylacetyl)-7-oxo-2,6-diazabicyclo[3.2.0]heptane-6-sulfonic acid sodium salt], which IC50 (β-lactamase; [1]) is on record?
Its IC50 is 283 nM.

And the “MIC” value (Citrobacter freundii)?
Its value is 1 mg/L.

Which IC50 (β-lactamase; [1]) does the source give for `O=C(/C=C/c1cc[nH]n1)N1CC[C@@H]2[C@H]1C(=O)N2S(=O)(=O)[O-].[Na+]` [23(e), (1S,5R)-7-Oxo-2-[(E)-3-pyrazol-3-yl-acryloyl]-2,6-diazabicyclo[3.2.0]heptane-6-sulfonic acid sodium salt] here?
The IC50 was 138 nM.

What about the “MIC” value (Citrobacter freundii) of the same molecule?
Its value is 1 mg/L.

What does the source list for `O=C(CNc1cc[nH]c(=O)n1)N1CC[C@@H]2[C@H]1C(=O)N2S(=O)(=O)O` [23(f), (1S,5R)-7-Oxo-(2-oxo-1,2-dihydro-pyrimidin-4-ylaminoacctyl)-2,6-diazabicyclo[3.2.0]heptane-6-sulfonic acid sodium salt]?
IC50 (β-lactamase): 30 nM; MIC (Citrobacter freundii): 0.5 mg/L

What does the source list for `Nc1nc(SCC(=O)N2CC[C@@H]3[C@H]2C(=O)N3S(=O)(=O)[O-])n(C(=O)OCc2ccccc2)n1.[Na+]` [23(g), (1S,5R)-2-(5-Amino-2-benzyloxycarbonyl-2H-1,2,4-triazol-3-ylsulfanyl-acetyl)-7-oxo-2,6-diazabicyclo[3.2.0]heptane-6-sulfonic acid sodium salt]?
IC50 (β-lactamase; [1]): 280 nM; MIC (Citrobacter freundii): 2 mg/L

For `CC(C)=C[C@@H]1[C@@H](C(=O)N2CC[C@@H]3[C@H]2C(=O)N3S(=O)(=O)[O-])C1(C)C.[Na+]` [23(h), (1S,5R)-2-[(1R,3R)-2,2-Dimethyl-3-(2-methyl-propenyl)-cyclopropylcarbonyl]7-oxo-2,6-diazabicyclo[3.2.0]heptane-6-sulfonic acid sodium salt], which IC50 (β-lactamase; [1]) is on record?
The IC50 was 920 nM.

What about the “MIC” value (Citrobacter freundii) of the same molecule?
Its value is 16 mg/L.

Which results are given for `O=C(Nc1nnc(SCC(=O)N2CC[C@@H]3[C@H]2C(=O)N3S(=O)(=O)[O-])s1)OCc1ccccc1.[Na+]` [23(i), (1S,5R)-2-(5-Benzyloxycarbonylamino-1,3,4-thiadiazol-2-ylsulfanyl-acetyl)-7-oxo-2,6-diazabicyclo[3.2.0]heptane-6-sulfonic acid sodium salt]?
IC50 (β-lactamase; [1]): 70 nM; MIC (Citrobacter freundii): 1 mg/L

For `O=C(C=Cc1cncn1S(=O)(=O)[O-])N1CC[C@@H]2[C@H]1C(=O)N2S(=O)(=O)[O-].[Na+].[Na+]` [23(l), (1S,5R)-7-Oxo-2-[3-(1-sulfo-imidazol-5-yl)acryloyl]-2,6-diazabicyclo[3.2.0]heptane-6-sulfonic acid sodium salt], which IC50 (β-lactamase; [1]) is on record?
Its IC50 is 5 nM.

What about the “MIC” value (Citrobacter freundii) of the same molecule?
Its value is 2 mg/L.

Which results are given for `O=C(OCc1ccccc1)N1CC[C@@H]2[C@H]1C(=O)N2S(=O)(=O)O` [Example 1(a), Benzyl (1S,5)-7-oxo-6-sulpho-2,6-diazabicyclo[3.2.0]heptane 2-carboxylate sodium salt]?
IC50 (β-lactamase): 100 nM; MIC (Citrobacter freundii): 8 mg/L

How did the IC50 (β-lactamase; [1]) turn out when `O=C(Nc1ccccc1)N1CC[C@@H]2[C@H]1C(=O)N2S(=O)(=O)[O-].[Na+]` [Example 2, (1S,5R)-7-Oxo-2-(phenylcarbamoyl)-2,6-diazabicyclo[3.2.0]heptane-6-sulphonic acid sodium salt] was run?
The IC50 was 220 nM.

What about the “MIC” value (Citrobacter freundii) of the same molecule?
Its value is 2 mg/L.

`O=C(NCc1ccccc1)N1CC[C@@H]2[C@H]1C(=O)N2S(=O)(=O)O` [Example 3, (1S,5R)-2-(Benzylcarbamoyl)-7-oxo-2,6-diazabicyclo[3.2.0]heptane-6-sulphonic acid sodium salt] was tested. Which IC50 (β-lactamase; [1]) did it give?
Its IC50 is 330 nM.

What about the “MIC” value (Citrobacter freundii) of the same molecule?
Its value is 2 mg/L.
